Laboratory results taken from the supplement of paper PMC10307832.

Legend:
Assay in all cases: relative viability (nuclei count vs DMSO), 5 days (fraction); higher = more cells survive
[1] = compound: CC1=C(C(=O)N2C=CSC2=N1)CCN3CCC(=C(C4=CC=CC=C4)C5=CC=C(C=C5)F)CC3 + C[C@@H](Oc1cc(-c2cnn(C3CCNCC3)c2)cnc1N)c1c(Cl)ccc(F)c1Cl [Crizotinib] (partner 1 µM)
Outline: (§1)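 One day after seeding in 1536-well plates, lung cancer cell lines were dosed by pin tool. Dosing was either single-drug or a fixed anchor-drug dose plus five library-drug doses (not always all listed) in √10 steps. After 5 days, nuclei were stained in one fix-and-stain step and counted on 4× images, and relative viability is the nuclei count of treated wells over that of vehicle wells, given as the median of duplicate plates.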

[2] = compound: CC1=C(C(=O)N2C=CSC2=N1)CCN3CCC(=C(C4=CC=CC=C4)C5=CC=C(C=C5)F)CC3 + NC(=O)Nc1cc(-c2cccc(F)c2)sc1C(=O)N[C@H]1CCCNC1 [AZD7762] (partner 0.2 µM)
Outline: as §1

[3] = compound: CC1=C(C(=O)N2C=CSC2=N1)CCN3CCC(=C(C4=CC=CC=C4)C5=CC=C(C=C5)F)CC3 + CC(=O)c1c(C)c2cnc(Nc3ccc(N4CCNCC4)cn3)nc2n(C2CCCC2)c1=O [Palbociclib] (partner 0.5 µM)
Outline: as §1

[4] = compound: CC1=C(C(=O)N2C=CSC2=N1)CCN3CCC(=C(C4=CC=CC=C4)C5=CC=C(C=C5)F)CC3 + O=C(CCCCCCC(=O)Nc1ccccc1)NO [Vorinostat] (partner 1 µM)
Outline: as §1

Cell Line	relative viability ([1]; first compound 0.08 µM)	relative viability ([1]; first compound 0.253 µM)	relative viability ([1]; first compound 0.8 µM)	relative viability ([1]; first compound 2.53 µM)	relative viability ([1]; first compound 8 µM)	relative viability ([2]; first compound 0.08 µM)	relative viability ([2]; first compound 0.253 µM)	relative viability ([2]; first compound 0.8 µM)	relative viability ([2]; first compound 2.53 µM)	relative viability ([2]; first compound 8 µM)	relative viability ([3]; first compound 0.08 µM)	relative viability ([3]; first compound 0.253 µM)	relative viability ([3]; first compound 0.8 µM)	relative viability ([3]; first compound 2.53 µM)	relative viability ([3]; first compound 8 µM)	relative viability ([4]; first compound 0.08 µM)	relative viability ([4]; first compound 0.253 µM)	relative viability ([4]; first compound 0.8 µM)	relative viability ([4]; first compound 2.53 µM)	relative viability ([4]; first compound 8 µM)
NCI-H1703	0.723	0.55	0.777	0.786	0.625	0.14	0.139	0.194	0.117	0.132										
NCI-H1792	1.01	0.671	1.02	1.11	0.549	0.649	0.655	0.62	0.636	0.386	0.353	0.663	0.649	0.564	0.271					
NCI-H1793						0.457	0.408	0.597	0.381	0.378	0.212	0.311	0.272	0.345	0.318	0.599	0.988	0.577	0.891	0.535
NCI-H2009	1.25	1.12	0.968	1.14	1.11						0.231	0.175	0.186	0.204	0.21	0.71	0.715	0.728	0.778	0.556
NCI-H2023	0.69	0.566	0.725	0.649	0.563						0.386	0.316	0.427	0.389	0.299	0.657	0.56	0.648	0.695	0.399
NCI-H2228	0.6	0.486	0.376	0.539	0.322						0.56	0.68	0.723	0.468	0.432	0.474	0.557	0.636	0.599	0.337
NCI-H2342						0.382	0.516	0.436	0.566	0.433	0.48	0.487	0.548	0.519	0.528	0.63	0.882	0.778	0.795	0.6
SK-LU-1	1.03	0.849	0.801	0.979	0.698						0.378	0.375	0.406	0.416	0.36	0.773	0.708	0.75	0.783	0.713
SK-MES-1	1.11	0.969	0.975	1.1	0.916						0.299	0.288	0.294	0.336	0.305	1.1	1.18	1.29	1.17	0.698
SW 1573	0.74	0.919	0.819	0.714	0.726						0.346	0.359	0.407	0.382	0.286	0.808	0.697	1.01	0.795	0.423
UMC-11	0.636	0.597	0.619	0.48	0.839						0.309	0.321	0.272	0.321	0.328	0.38		0.354	0.333	0.405
